In paper PMC8151276, “An Integrated Approach toward NanoBRET Tracers for Analysis of GPCR Ligand Engagement” (Molecules, 2021):

Tests used:
Assay type in all cases: binding
[1] = target: T1, HRH4 (Homo sapiens, UniProt Q9H3N8); experiment: NanoBRET screen HiBiT-HRH4 in HEK293
T1 construct: purchased Promega (in-house HiBiT-GPCR construct library, NanoBRET)
Protocol: (§1) Each tracer candidate was screened across the entire library of HiBiT-GPCR constructs using NanoBRET as the detection modality. As depicted in Figure 4A, the specificity of interactions was evaluated through decrease in BRET due to competitive displacement of a bound tracer by excess parental compound. Each tracer was analyzed for binding to each HiBiT-GPCR fusion in the absence and in the presence of competing parental compound. Briefly, HEK293 cells were transfected with HiBiT-GPCR constructs diluted into promoterless DNA to reduce expression and maximize translocation to the cell surface. Each tracer candidate was then screened at concentrations of 1 μM and 0.1 μM across cells expressing these fusions. Cells were treated for 1.5 h with tracer either alone or in the presence of 20 μM competing parental compound (i.e., control). BRET was measured upon addition of purified LgBiT and subsequent complementation with HiBiT genetically fused to a GPCR. The specificity of interactions was assessed through a decrease in BRET signal due to competitive displacement of the bound tracer. To further gauge the robustness of these interactions, the fold response over the control (i.e., BRETtracer/BRETcontrol) was calculated. We chose a 1.5-fold response, which translates to ≥7-fold signal over noise as the minimal threshold required to score an interaction as positive. […]. Below we highlight the screening results obtained for our exemplary fluorescent tracers based on Clozapine, Amitriptyline and AZD1283.
(§2) HiBiT-GPCR DNA constructs were diluted in 10 mM Tris pH 8 to a final concentration of 0.01 μg/μL, arrayed in 96-well plates and stored at −20 °C. For transfection, HEK293 cells were suspended in Opti-MEM (without phenol red) supplemented with 2% fetal bovine serum (Seradigm) and 100 units/mL penicillin–streptomycin (Gibco) at a final concentration of 220,000 cells/mL and dispensed into white 96-well plates at 90 μL/well. Subsequent transfections and screens were carried using an Agilent Bravo Automated Liquid Handling Platform. First, the 96-well HiBiT DNA arrays were diluted 25-fold in Opti-MEM (without serum or phenol red) to a final concentration of 0.0004 μg/μL and 20 μL of the diluted DNAs were transferred into new 96-well plates. Next, promoterless carrier DNA (1 μg/μL) was diluted 25-fold (0.04 μg/μL) and then dispensed into the diluted arrays at 20 μL/well. Following brief mixing, Viafect transfection reagent (Promega) diluted 16-fold into Opti-MEM was dispensed into the plates at 40 μL/well. After mixing by pipetting, plates were incubated for 10 min on the pipetting station deck. The DNA-transfection reagent complexes were then added to plates containing cells. To facilitate the screen, 10 μL of DNA-transfection reagent complexes were added in duplicates to the top 4 and bottom 4 rows, resulting in two identical 48-well arrays per plate. Plates with transfected cells were incubated for 18–20 h at 37 °C/5% CO2. A screen of each tracer across the entire library using two different concentrations requires duplicate plates of transfected cells. Depending on the number of tracers being screened, transfections can be scaled up using the same ratios. The next day, for each tracer, four 20× screening solutions in tracer dilution buffer (Promega) were prepared: two duplicates at final concentration of 20 μM and two duplicates at a final concentration of 2 μM. A competing unmodified compound was added to one of each duplicate at a final concentration of 400 μM. The four resulting solutions were diluted 4-fold in Opti-MEM without serum or phenol red to generate 5× solutions (5 µM and 0.5 µM tracer +/− 100 μM competing compound). To screen the library, a BioTek MultiFlo FX liquid dispenser was used to dispense 22.5 µL of tracer solution to the top 4 rows and 22.5 µL tracer + competing compound solution to the 4 bottom rows. Plates were briefly mixed on an orbital shaker and incubated for 1.5 h at room temperature. […]

[2] = target: T2, PTGER2 (Homo sapiens, UniProt P43116); experiment: NanoBRET screen HiBiT-PTGER2 in HEK293
T2 construct: purchased Promega (in-house HiBiT-GPCR construct library, NanoBRET)
T2 sequence (P43116 whole entry): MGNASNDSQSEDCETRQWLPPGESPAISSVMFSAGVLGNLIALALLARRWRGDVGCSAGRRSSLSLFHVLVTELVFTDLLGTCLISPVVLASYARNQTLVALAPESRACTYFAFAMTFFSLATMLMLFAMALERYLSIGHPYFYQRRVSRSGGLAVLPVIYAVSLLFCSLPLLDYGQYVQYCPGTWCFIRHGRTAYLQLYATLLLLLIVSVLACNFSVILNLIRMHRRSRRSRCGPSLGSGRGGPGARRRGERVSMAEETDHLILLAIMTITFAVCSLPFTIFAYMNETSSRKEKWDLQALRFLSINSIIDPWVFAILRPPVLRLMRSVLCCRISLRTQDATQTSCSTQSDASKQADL
Protocol: as §1, §2

[3] = target: T3, NPY1R (Homo sapiens, UniProt P25929); experiment: NanoBRET screen HiBiT-NPY1R in HEK293
T3 construct: purchased Promega (in-house HiBiT-GPCR construct library, NanoBRET)
T3 sequence (P25929 1-384): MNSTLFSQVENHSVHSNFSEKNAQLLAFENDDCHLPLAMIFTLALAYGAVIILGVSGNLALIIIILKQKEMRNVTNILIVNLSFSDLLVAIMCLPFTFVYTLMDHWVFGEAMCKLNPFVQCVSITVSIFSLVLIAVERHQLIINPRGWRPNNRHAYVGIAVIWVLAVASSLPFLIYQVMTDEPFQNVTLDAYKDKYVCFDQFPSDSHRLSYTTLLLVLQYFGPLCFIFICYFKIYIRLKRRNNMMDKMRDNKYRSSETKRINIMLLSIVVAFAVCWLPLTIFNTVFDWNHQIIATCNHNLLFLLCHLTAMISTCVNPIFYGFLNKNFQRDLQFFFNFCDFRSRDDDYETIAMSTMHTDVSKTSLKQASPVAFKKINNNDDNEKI
Protocol: as §1, §2

[4] = target: T4, FZD6 (Homo sapiens, UniProt O60353); experiment: NanoBRET screen HiBiT-FZD6 in HEK293
T4 construct: purchased Promega (in-house HiBiT-GPCR construct library, NanoBRET)
T4 sequence (O60353 19-706): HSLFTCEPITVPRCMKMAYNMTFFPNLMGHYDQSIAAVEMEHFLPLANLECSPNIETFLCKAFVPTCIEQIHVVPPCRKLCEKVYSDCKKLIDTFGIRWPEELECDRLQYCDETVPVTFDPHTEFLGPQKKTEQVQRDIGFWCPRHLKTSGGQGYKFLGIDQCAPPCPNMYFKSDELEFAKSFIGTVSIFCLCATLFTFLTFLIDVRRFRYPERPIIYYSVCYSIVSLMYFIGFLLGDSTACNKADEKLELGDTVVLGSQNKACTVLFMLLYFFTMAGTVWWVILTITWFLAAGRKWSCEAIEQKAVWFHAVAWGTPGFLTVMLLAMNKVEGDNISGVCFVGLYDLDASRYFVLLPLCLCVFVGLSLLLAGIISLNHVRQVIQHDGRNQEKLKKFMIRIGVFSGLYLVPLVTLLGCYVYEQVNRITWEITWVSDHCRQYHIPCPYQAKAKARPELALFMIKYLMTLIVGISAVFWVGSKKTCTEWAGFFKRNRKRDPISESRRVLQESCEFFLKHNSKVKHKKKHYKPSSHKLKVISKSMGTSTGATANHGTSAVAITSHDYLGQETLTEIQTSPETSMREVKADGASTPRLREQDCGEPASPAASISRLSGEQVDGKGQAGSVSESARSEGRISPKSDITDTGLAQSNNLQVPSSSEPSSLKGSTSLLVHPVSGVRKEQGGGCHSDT
Protocol: as §1, §2

[5] = target: T5, SMO (Homo sapiens, UniProt Q99835); experiment: NanoBRET screen HiBiT-SMO in HEK293
T5 construct: purchased Promega (in-house HiBiT-GPCR construct library, NanoBRET)
T5 sequence (Q99835 28-787): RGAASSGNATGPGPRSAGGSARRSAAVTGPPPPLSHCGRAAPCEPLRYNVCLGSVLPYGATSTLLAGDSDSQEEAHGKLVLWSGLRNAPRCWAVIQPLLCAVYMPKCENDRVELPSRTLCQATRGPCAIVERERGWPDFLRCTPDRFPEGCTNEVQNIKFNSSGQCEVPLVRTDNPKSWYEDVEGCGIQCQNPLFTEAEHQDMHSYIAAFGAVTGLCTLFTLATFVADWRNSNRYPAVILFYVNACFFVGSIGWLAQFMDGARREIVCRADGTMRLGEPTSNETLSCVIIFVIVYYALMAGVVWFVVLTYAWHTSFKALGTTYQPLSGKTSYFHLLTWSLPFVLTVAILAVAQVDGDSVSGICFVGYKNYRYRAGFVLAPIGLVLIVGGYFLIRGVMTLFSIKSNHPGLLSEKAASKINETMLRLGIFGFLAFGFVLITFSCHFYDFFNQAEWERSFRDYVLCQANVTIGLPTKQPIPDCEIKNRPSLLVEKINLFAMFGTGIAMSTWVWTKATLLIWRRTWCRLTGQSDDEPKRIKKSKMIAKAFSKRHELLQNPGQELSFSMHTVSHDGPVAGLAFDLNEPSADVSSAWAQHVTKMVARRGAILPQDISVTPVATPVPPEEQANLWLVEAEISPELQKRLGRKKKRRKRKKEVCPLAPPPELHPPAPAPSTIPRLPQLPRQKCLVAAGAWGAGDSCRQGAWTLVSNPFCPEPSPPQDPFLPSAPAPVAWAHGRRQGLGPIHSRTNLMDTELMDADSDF
Protocol: as §1, §2

T1 sequence (Q9H3N8 whole entry): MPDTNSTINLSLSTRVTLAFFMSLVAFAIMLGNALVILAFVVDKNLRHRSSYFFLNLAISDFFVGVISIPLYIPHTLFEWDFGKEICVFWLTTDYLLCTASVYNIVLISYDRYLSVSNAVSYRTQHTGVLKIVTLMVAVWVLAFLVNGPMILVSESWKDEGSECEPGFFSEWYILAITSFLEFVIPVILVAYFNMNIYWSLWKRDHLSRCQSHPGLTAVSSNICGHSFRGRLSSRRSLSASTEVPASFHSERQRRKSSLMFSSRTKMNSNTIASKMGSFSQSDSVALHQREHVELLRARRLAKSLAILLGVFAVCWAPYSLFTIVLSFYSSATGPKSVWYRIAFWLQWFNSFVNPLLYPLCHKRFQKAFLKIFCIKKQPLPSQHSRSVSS

SMILES | NanoBRET Fold Response ([1]; 0.1μM tracer) | NanoBRET Fold Response ([1]; 1μM tracer) | NanoBRET Fold Response ([2]; 0.1μM tracer) | NanoBRET Fold Response ([2]; 1μM tracer) | NanoBRET Fold Response ([3]; 0.1μM tracer) | NanoBRET Fold Response ([3]; 1μM tracer) | NanoBRET Fold Response ([4]; 0.1μM tracer) | NanoBRET Fold Response ([4]; 1μM tracer) | NanoBRET Fold Response ([5]; 0.1μM tracer) | NanoBRET Fold Response ([5]; 1μM tracer) | NanoBRET Fold Response ([1]; HRH4, 0.1μM tracer) | NanoBRET Fold Response ([1]; HRH4, 1μM tracer) | NanoBRET Fold Response ([2]; PTGER2, 0.1μM tracer) | NanoBRET Fold Response ([2]; PTGER2, 1μM tracer) | NanoBRET Fold Response ([3]; NPY1R, 0.1μM tracer) | NanoBRET Fold Response ([3]; NPY1R, 1μM tracer) | NanoBRET Fold Response ([4]; FZD6, 0.1μM tracer) | NanoBRET Fold Response ([4]; FZD6, 1μM tracer) | NanoBRET Fold Response ([5]; SMO, 0.1μM tracer) | NanoBRET Fold Response ([5]; SMO, 1μM tracer)
COc1ccc2c(n1)c(CCNC(C)=O)cn2CCNC(=O)CCc1ccc2n1[B-](F)(F)[N+]1=C(c3ccc[nH]3)C=CC1=C2 [Azamelatonin-1-NB590] | 0.92 | 0.92 | 1.01 | 1.07 | 0.93 | 0.68 | 1.09 | 0.86 | 0.82 | 1.37 | – | – | – | – | – | – | – | – | – | –
COc1ccc2[nH]c(-c3ccc(CNC(=O)CCOCCOCCOCCOCCNC(=O)CCc4ccc5n4[B-](F)(F)[N+]4=C(c6ccc[nH]6)C=CC4=C5)cc3)c(CCNC(C)=O)c2n1 [AzomelatoninICO9-2-NB590] | 0.80 | 1.14 | 1.01 | 0.97 | 1.15 | 0.94 | 1.12 | 0.94 | 0.86 | 1.25 | – | – | – | – | – | – | – | – | – | –
O=C(CCOCCOCCOCCOCCNC(=O)CCc1ccc2n1[B-](F)(F)[N+]1=C(c3ccc[nH]3)C=CC1=C2)NCCCN1CCN(C2=Nc3cc(Cl)ccc3Nc3ccccc32)CC1 [Clozapine-a-2-NB590] | – | – | – | – | – | – | – | – | – | – | 1.00 | 1.07 | 1.01 | 1.05 | 0.97 | 1.23 | 0.99 | 0.93 | 1.00 | 0.64
CN1CCN(C2=Nc3cc(Cl)ccc3Nc3ccc(CNC(=O)CCOCCOCCOCCOCCNC(=O)CCc4ccc5n4[B-](F)(F)[N+]4=C(c6ccc[nH]6)C=CC4=C5)cc32)CC1 [Clozapine-b-2-NB590] | – | – | – | – | – | – | – | – | – | – | 1.01 | 0.81 | 1.01 | 0.98 | 1.00 | 1.03 | 1.03 | 1.04 | 1.13 | 0.80
CN1CCN(C2=Nc3cc(Cl)ccc3N(CC(=O)NCCOCCOCCOCCOCCNC(=O)CCc3ccc4n3[B-](F)(F)[N+]3=C(c5ccc[nH]5)C=CC3=C4)c3ccccc32)CC1 [Clozapine-c-2-NB590] | – | – | – | – | – | – | – | – | – | – | 1.04 | 0.97 | 0.98 | 1.09 | 1.01 | 1.01 | 1.01 | 1.04 | 0.97 | 1.09
